Assay results reported in patent US10980754B2, “Anti-fungal compounds” (SAINT LOUIS UNIVERSITY, priority 2016, dated 2021).
In brackets after ≈: the same amount, converted by molar mass. Entries after “also recorded” stand apart in the source; their conditions may differ.

What was measured:
[1] = system: C. neoformans var grubii, KN99; assay: Inhibition of C. neoformans growth, limiting dilution assay (MIC); type: cell-based; settings: for MIC80: KN99α, minimal concentration inhibiting 80% of growth relative to vehicle; for activity against C. neoformans (in words): MIC assay
Method: Strains and media. All inhibition assays were performed with C. neoformans var grubii, KN99 (serotype A, MATα; kindly provided by Jennifer Lodge). Two clinical strains of C. neoformans var grubii, serotype A, were kindly provided by Tamara Doering and Andre Spec. […] Each assay was done in triplicate and all values are the average of two or more independent assays. The data are presented as the average cell density as a percent of DMSO-only treated cells. […] However, these conditions are unlike conditions encountered by C. neoformans in mammalian infections, where nutrients are limited, and the pH and temperature are higher than in YPD media. The cryptococcal stress response to low glucose and high pH and temperature may alter its susceptibility to the inhibitors. It is also possible that the enzymes targeted by the inhibitors may render the cell temperature sensitive when inhibited. To better mimic growth in mammals, growth was tested without shaking in nutrient-limited media at 35° C. […] However, as the nutrient-limited media and higher temperature is more similar to mammalian cell growth conditions, these conditions were used for all further assays. […] All values were measured at least two times in independent experiments and the average MIC is reported.

[2] = Cytotoxicity in hepatoma cells (MTS); settings: human, HepDES19 cells
Method: (§1) HepDES19 cells (1.0×10^4 cells per well) were seeded in 96-well plates and incubated in DMEM with 10% fetal bovine serum (FBS) plus 1% penicillin and streptomycin, 1% nonessential amino acids, and 1% glutamine. The compounds were diluted in the medium at concentrations ranging from 0.78 to 100 μM plus 1% DMSO and added to the cells 48 hours after plating, with each concentration tested in triplicate. Cells were incubated with the compound for 72 hours and cytotoxicity was measured using a mitochondrial metabolic assay with MTS (Promega). The data were transformed to log[inhibitor] and fit to a 4-variable slope curve using GraphPad Prism (v6, www.graphpad.com).
(§2) Three days later, the MTS reagent was added for 90 minutes prior to terminating the incubation period and reading the OD480.

HepDES19 cells = assay: Cytotoxicity in hepatoma cells (MTS); settings: 72 hours, MTS
Method: as §1, §2

Wild-type KN99α = assay: Screening of 1-Hydroxy-1,8-naphthyridin-2(1H)-one (HNO) compounds for growth inhibition; type: cell-based, C. neoformans; settings: Cryptococcus neoformans; growth inhibited >80%
Method: FIG. 1. Results from screening 8 napthyridinone derivatives. Wild-type KN99α at a starting density of 0.0005 was treated with the compounds at 4 μM, 15 μM, and 60 μM in nutrient-limiting media (YNB, pH 7)+1% DMSO at 35° C. for 48 hours. Bars represent the average cell density of at least three replicates as percent of untreated cells.
Eight compounds in the 1-Hydroxy-1,8-naphthyridin-2(1H)-one (HNO) chemical family were also tested. Three compounds, #149, #153 and #154, inhibited growth of C. neoformans >80% with MICs of ˜10 μM, ˜4 μM and ˜20 μM respectively.

[3] = Cryptococcus neoformans, YNB-02+1% DMSO, 35° C., 48 hours
[4] = CC50, HepDES19 cells, 72 hours, MTS
[5] = YNB-02+1% DMSO, 35° C., 48 hours
[6] = Cryptococcus neoformans, Table 3, similar methods to Table 2
[7] = CC50, Table 3, similar methods to Table 2

| Compound | MIC80 [1, 3] [µM] | CC50 at 72 h [2, 4] [µM] | other results |
| --- | --- | --- | --- |
| CC(C)c1ccc(O)c(=O)cc1 [Compound 48, γ-thujaplicin] | 8 (≈ 1.31 µg/mL) | 45 |  |
| CC(C)=CCc1ccc(=O)c(O)cc1C(C)C [Compound 49, Nootkatin] | 18 (≈ 4.18 µg/mL) | 18.5 |  |
| O=Nc1ccc(O)c(=O)cc1 [Compound 50, 5-nitrosotropolone] |  |  | MIC80 [1, 5]: 24 µM (≈ 3.63 µg/mL); CC50 (HepDES19 cells): 17.5 µM |
| O=C(Oc1cccccc1=O)c1ccc([N+](=O)[O-])cc1 [Compound 51, tropolone p-nitrobenzoate] | 24 (≈ 6.51 µg/mL) | > 100 |  |
| O=C(Nc1ccc(O)c(=O)cc1)c1ccccc1 [Compound 52] | 50 (≈ 12.1 µg/mL) | > 100 |  |
| O=c1cccccc1O [Compound 53, Tropolone] | 24 (≈ 2.93 µg/mL) | 100 | MIC [1, 3]: 24 µM (≈ 2.93 µg/mL) |
| CC(=O)NC(CCc1ccc(Cl)c(Cl)c1)c1cccc(O)c(=O)c1 (stereo not shown) [Compound 55] | 6 (≈ 2.2 µg/mL) | 4.3 | CC50 at 72 h ([2]; CC50, HepDES19, MTS): 4 µM |
| C=C(C)C1CCc2c(c(C)cc(O)c(=O)c2O)C1 (stereo not shown) [Compound 56, Manicol] | 50 (≈ 12.3 µg/mL) | 27 |  |
| O=c1cccccc1Cl [Compound 57, 2-chlorotropone] |  |  | MIC80 [1, 5]: 50 µM (≈ 7.03 µg/mL) |
| Cc1ccc(C(=O)Nc2cccccc2=O)cc1 [Compound 60] | 50 (≈ 12 µg/mL) | > 100 |  |
| Cc1ccc(S(=O)(=O)Oc2cccccc2=O)cc1 [Compound 61] | 41 (≈ 11.3 µg/mL) | 30.5 | CC50 at 72 h ([2]; CC50, HepDES19, MTS): 30.5 µM |
| O=C(Oc1cccccc1=O)c1ccc(Cl)cc1 [Compound 63] | 17 (≈ 4.43 µg/mL) | 100 |  |
| COC(=O)c1c(C)cc(O)c(=O)c(O)c1C(=O)OC [Compound 106] | 41 (≈ 11 µg/mL) | 24.5 |  |
| COC(=O)c1c(CCl)cc(O)c(=O)c(O)c1C(=O)OC [Compound 107] | 50 (≈ 15.1 µg/mL) | 85.5 |  |
| COCc1cc(O)c(=O)c(O)c(C(=O)OC)c1C(=O)OC [Compound 108] | 50 (≈ 14.9 µg/mL) | 90.5 |  |
| CC(=O)c1cc(O)c(=O)c(O)cc1C [Compound 110] | 50 (≈ 9.71 µg/mL) | 19 | MIC [1, 3]: ≥ 50 µM |
| Cc1cc(O)c(=O)c(O)cc1C(=O)c1ccccc1 [Compound 111] | 36 (≈ 9.23 µg/mL) | 26.3 |  |
| Cc1cc(O)c(=O)c(O)cc1-c1ccc([N+](=O)[O-])cc1 [Compound 112] | 49 (≈ 13.4 µg/mL) | 74 |  |
| Cc1cc(O)c(=O)c(O)cc1-c1ccccc1 [Compound 113] | 24 (≈ 5.48 µg/mL) | 37.5 |  |
| Cc1cc(O)c(=O)c(O)cc1-c1ccc(Br)cc1 [Compound 114] | 11 (≈ 3.38 µg/mL) | 18.6 |  |
| Cc1cc(O)c(=O)c(O)cc1C(=O)c1ccc(-c2ccccc2)cc1 [Compound 118] | 18 (≈ 5.98 µg/mL) | 17.5 |  |
| Cc1cc(O)c(=O)c(O)cc1C(=O)C1CCCCC1 [Compound 120] | 12 (≈ 3.15 µg/mL) | 21.5 |  |
| Cc1cc(O)c(=O)c(O)cc1C(=O)C(C)C [Compound 143] | 50 (≈ 11.1 µg/mL) | > 100 | MIC [1, 3]: ≥ 50 µM |
| Cc1cc(O)c(=O)c(O)cc1-c1ccc(Cl)cc1 [Compound 144] | 50 (≈ 13.1 µg/mL) |  |  |
| Cc1cc(O)c(=O)c(O)cc1-c1ccc(C(F)(F)F)cc1 [Compound 145] | 15 (≈ 4.44 µg/mL) | 11 |  |

| Compound | MIC80 [1, 3] [µM] | CC50 at 72 h [2, 4] [µM] | other results |
| --- | --- | --- | --- |
| Cc1cc(O)c(=O)c(O)cc1-c1cccc2ccccc12 [Compound 146] | 20 (≈ 5.57 µg/mL) | 20 |  |
| O=c1cc(Cc2ccc(Br)cc2)c2cccnc2n1O [Compound 149] |  |  | MIC (Wild-type KN99α): ~10 µM (≈ 3.31 µg/mL) |
| NCc1cccc(-c2ccc(Cc3cc(=O)n(O)c4ncccc34)cc2)c1 [Compound 153] |  |  | MIC (Wild-type KN99α): ~4 µM (≈ 1.43 µg/mL) |
| O=c1cc(-c2ccccc2)c2cccnc2n1O [Compound 154] |  |  | MIC (Wild-type KN99α): ~20 µM (≈ 4.76 µg/mL) |
| O=c1c(O)ccccc1O [Compound 172, 7-Hydroxytropolone] | 24 (≈ 3.31 µg/mL) | 100 | MIC [1, 3]: 24 µM (≈ 3.31 µg/mL); activity against C. neoformans (in words) [1]: little activity |
| Cc1ccc(O)c(=O)c(O)c1 [Compound 210] | 15 (≈ 2.28 µg/mL) | 71 | MIC [1, 3]: ≤ 15 µM |
| O=c1c(O)ccc(-c2ccccc2)cc1O [Compound 262, 2,7-dihydroxy-4-phenylcyclohepta-2,4,6-trien-1-one] | 18 (≈ 3.86 µg/mL) | 96 |  |
| O=c1c(O)ccc(-c2ccc(-c3ccccc3)cc2)cc1O [Compound 264, 4-([1,1′-biphenyl]-4-yl)-2,7-dihydroxycyclohepta-2,4,6-trien-1-one] | 35 (≈ 10.2 µg/mL) | 28 |  |
| O=c1c(O)ccc(-c2ccco2)cc1O [Compound 265, 4-(furan-2-yl)-2,7-dihydroxycyclohepta-2,4,6-trien-1-one] |  |  | MIC [1, 3]: ≤ 15 µM |
| COC(=O)c1cc(O)c(=O)c(OC)cc1C [Compound 273] | 50 (≈ 11.2 µg/mL) | 100 | activity against C. neoformans (in words) [1]: no activity |
| COC(=O)c1c2c(cc(O)c(=O)c1O)COC2=O [Compound 280, Methyl 5,7-dihydroxy-3,6-dioxo-3,6-dihydro-1H-cyclohepta[c]furan-4-carboxylate] | 50 (≈ 12.6 µg/mL) | 66 |  |
| Cc1ccccc1C(=O)Oc1cccccc1=O [Compound 281] | 50 (≈ 12 µg/mL) | 100 |  |
| O=C(Oc1cccccc1=O)c1ccccc1Cl [Compound 282] | 36 (≈ 9.38 µg/mL) |  | CC50 (HepDES19 cells): 96.5 µM |
| Cc1cc(O)c(=O)c(O)cc1C(=O)c1cccs1 [Compound 308, 4-(thiopene-2-carbonyl)-2,7-dihydroxy-5-methylcyclohepta-2,4,6-trien-1-one] | 11 (≈ 2.89 µg/mL) | 24 |  |
| Cc1cc(O)c(=O)c(O)cc1C(=O)c1ccco1 [Compound 309, 4-(furan-2-carbonyl)-2,7-dihydroxy-5-methylcyclohepta-2,4,6-trien-1-one] | 24 (≈ 5.91 µg/mL) | 35 |  |
| Cc1cc(O)c(=O)c(O)cc1C(=O)C1CC1 [Compound 310, 4-(cyclopropanecarbonyl)-2,7-dihydroxy-5-methylcyclohepta-2,4,6-trien-1-one] | 11 (≈ 2.42 µg/mL) | 35 |  |
| Cc1cc(O)c(=O)c(O)cc1C(=O)c1ccccc1O [Compound 311, 4-(2-hydroxybenzoyl)-2,7-dihydroxy-5-methylcyclohepta-2,4,6-trien-1-one] | 15 (≈ 4.08 µg/mL) | 20 |  |
| COc1ccc(C(=O)c2cc(O)c(=O)c(O)cc2C)cc1 [Compound 312, 4-(4-methoxybenzoyl)-2,7-dihydroxy-5-methylcyclohepta-2,4,6-trien-1-one] | 18 (≈ 5.15 µg/mL) | 18 |  |
| Cc1cc(O)c(=O)c(O)cc1C(=O)c1ccc([N+](=O)[O-])cc1 [Compound 313, 2,7-dihydroxy-4-methyl-5-(4-nitrobenzoyl)cyclohepta-2,4,6-trien-1-one] | 24 (≈ 7.23 µg/mL) | 46 |  |
| Cc1cc(O)c(=O)c(O)cc1C(=O)c1ccc2ccccc2c1 [Compound 315, 4-(2-naphthoyl)-2,7-dihydroxy-5-methylcyclohepta-2,4,6-trien-1-one] | 24 (≈ 7.35 µg/mL) | 17 |  |
| COc1cc(C)c(C(=O)c2ccccc2)c(C(=O)c2ccccc2)c(O)c1=O [Compound 317, (7-hydroxy-5-methoxy-3-methyl-6-oxocyclohepta-2,4,7-triene-1,2-diyl) bis (phenyl methanone)] | 50 (≈ 18.7 µg/mL) | > 100 | activity against C. neoformans (in words) [1]: little activity; also recorded: no activity |
| Cc1cc(O)c(=O)c(O)cc1C(=O)O [Compound 319, 4,6-dihydroxy-2-methyl-5-oxocyclohepta-1,3,6-triene-1-carboxylic Acid] | 50 (≈ 9.81 µg/mL) | > 100 | MIC [1, 3]: ≥ 50 µM |
| O=C(Sc1cccccc1=O)c1ccccc1 [Compound 364] |  |  | MIC [1, 6]: 0.2 µM (≈ 0.0485 µg/mL); CC50 at 72 h [2, 7]: 46 µM |
| Cc1ccc(CSc2cccccc2=O)cc1 [Compound 365] |  |  | MIC [1, 6]: > 50 µM; CC50 at 72 h [2, 7]: > 100 µM |
| Purpurogallin [Compound 195] |  |  | MIC80 [1, 5]: 50 µM; activity against C. neoformans (in words) [1]: largely ineffective; CC50 (HepDES19 cells): 92 µM |
